Results: ChEMBL document CHEMBL1154685, “Simple oxidation of pyrimidinylhydrazones to triazolopyrimidines and their inhibition of Shiga toxin trafficking” (Eur J Med Chem, 2010)

System: HeLa
Assay: Toxicity in human HeLa cells assessed as inhibition of protein synthesis by [35S]labeled methionine and cysteine incorporation
Assay type: cell-based

COc1cc(/C=N/NC2=C3C4=C(CCCC4)SC3N=CN2)ccc1O (configuration not stated)
Activity: Non-toxic

Oc1ccc(-c2nc3c4c5c(sc4ncn3n2)CCCC5)cc1
Activity: Non-toxic
